Results on one compound are retold here after patent US20040044304A1, “Local drug delivery using photosensitizer-mediated and electromagnetic radiation enhanced vascular permeability” (priority 2002, published 2004).

This data set relates to blood vessels within the dorsal window chamber. Format: in vivo, mice of strain C3H. An excerpt: Male mice of strain C3H (sourced from The Jackson Laboratory, 600 Main Street, Bar Harbor, Me. 04609 USA) weighing between 28-30 gram were surgically implanted with titanium back-pack window chambers in a similar manner to that described for Syrian Golden hamsters as described above. Prior to the surgical procedure, the dorsal surface of the mouse was shaved with electric clippers (Sunbeam Oster 2-Speed, 150 Cadillac Lane, McMinnville, Tenn., 37110) and then the shaved skin covered in a depilatory cream (Nair, Carter Products, New York, N.Y., 10105) for 10 minutes to remove the remaining hair. Then a dorsal skin fold consisting of two layers of skin and muscle tissue was sandwiched between two opposing titanium frames (Campus Research Machine Shop, University of California, San Diego 9500 Gilman Drive, La Jolla, Calif.) with a 14 mm circular opening in each. Layers of skin and muscle fascia were separated from the sub-cutaneous tissue, and removed until a thin monolayer of muscle and one layer of intact skin remained. A coverglass (Type Circle 1, Part #12-545-80 sourced from Fisher Scientific, 2761 Walnut Avenue, Tustin, Calif., 92780) held by an expansion ring in the circular window of one titanium frame was then placed on the exposed tissue to allow direct microscopic visualization of the vasculature. The window in the second opposing titanium frame was left open exposing the intact skin.
Microvascular observations using an intra-vital microscope were not undertaken until at least 2 days post-chamber implantation to mitigate against post-surgical trauma, and to confirm that blood vessels within the chamber were functioning and intact and patent. A chamber was considered suitable for subsequent studies if microscopic examination of the preparation met the following criteria (as applied in Friesenecker et al., 1994):
The intra-vital microscopic studies were undertaken on un-sedated animals held in a Plexiglass tube (manufactured by Miravant Medical Technologies, Inc., 336 Bollay Drive, Santa Barbara, 93117) from which the window chamber sandwich protruded horizontally, allowing visualization of the chamber on the microscope stage. The Plexiglass tube acted to restrain the animals without impeding respiration. The intra-vital microscopy was performed using a Leitz Dialux 22 (West LA Microscope Co., Butler Avenue, Santa Monica, 90025) fitted with a Leitz Wetzlar 20× L20 lens (0.32 numerical aperture), a Leitz Wetzlar 10× Planfluotar lens (0.30 numerical aperture), a Leitz Wetzlar 4× EF lens (0.12 numerical aperture), a Leitz Wetzlar 2.5× P1 lens (0.08 numerical aperture, and an Olympus 20× Wplan water immersion lens (0.4 numerical aperture). The intra-vital microscope system used for these studies was fitted with two trans-illumination light sources and one epi-illumination light source. The two trans-illumination sources were used in the following manner. One trans-illumination light source was used for imaging the tissue within the window chamber, and the other was used as the irradiation source for activating the photosensitizer in the tissue. The imaging source was a […] mercury arc lamp (Type 307-143.004 from Ernst Leitz Wetzlar GmBH, Germany) which was powered by an HBO 100 power supply (LEP Ltd., Scarsdale, N.Y.). The output from this source was filtered using a #H43157 interference filter (Edmund Scientific, 101 East Gloucester Pike, Barrington, N.J., 08007-1380), to produce a beam of 410 nm light. The irradiation source was a Model DD4 Diode Laser (Miravant Medical Technologies 336 Bollay Drive., Santa Barbara, Calif., 93117), which produced 664 nm light.

Each structure is given as a SMILES string.

As for `C=Cc1c(C)c2[n]3c1=CC1=NC(=Cc4c(C)c5c([n]4[In]3[Cl])C(=C3N=C(C=2)[C@@H](C)[C@@H]3CCC(=O)OC)CC5=O)C(CC)=C1C` [MV6401, indium methyl pyropheophorbide], the “Extravasation of FITC-Dextran from larger vessels in field” value (mouse #2, MV6401 0.05 mg/kg i.v., 664 nm, 15 J/cm^2, 50 mW/cm^2, FITC-Dextran 1 day post PhotoPoint therapy) is “Pronounced extravasation”. For the same compound, for the setting “mouse #3, MV6401 0.05 mg/kg i.v., 664 nm, 20 J/cm^2, 50 mW/cm^2, FITC-Dextran 2 days post PhotoPoint therapy”, the “Extravasation of FITC-Dextran from many vessels in the treatment field” value is given as “flowing. Pronounced”. Besides, under “mouse, in vivo, iv, 0.05 mg/kg”, the Edema in field entry is “Mild edema in field”; the “Focal edema and cellular infiltrate” value is “minor areas of focal”; the “Focal vascular damage in the treatment field, immediately post FITC-Dextran administration” value is “Some evidence of focal”; the “Tissue damage, subsequent observation” value is “damage. Some evidence”. The “Vascular damage, subsequent observation” value (mouse, in vivo, iv, 0.05 mg/kg) is recorded as “Pronounced focal vascular”.
